Values after ≈ are worked out from the molar mass of the structure shown. Like-named read-outs stand apart in the source and are kept apart here.
Tests used:
[1] = Metabolic stability in human liver microsomes; assay type: in vitro ADME; conditions: predicted in vivo clearance from liver microsomes, well-stirred model, 1 μM
Procedure: Determination of Metabolic Stability in Human and Rat Liver Microsomes
Isolated Human Liver Microsomes (HLM) were Used to Assess the Metabolic Stability of compounds of general formula I.
The incubations were conducted with 2.4 ml of HLM solution (protein content 0.5 mg/ml), 30 μl of the test compound (final concentration 1 μM) and 0.6 ml of the cofactor mixture (═NADPH-generating system composed of 3 IU glucose-6-phosphate dehydrogenase, 14.6 mg glucose-6-phosphate, 1.2 mg NADP) at 37° C. in 100 mM phosphate buffer at pH 7.4. Samples were taken at 6 time points (2-60 min) and precipitated with an equal volume of methanol, and the recovery of the test substances used in the supernatant was determined by LC-MS/MS analysis. The half-life of substance degradation determined therefrom was used to calculate what is called the intrinsic clearance of the substance in the liver microsome preparation.

[2] = molecular target: T1, human progesterone receptor B (Homo sapiens, UniProt P06401); assay: Progesterone receptor-antagonistic action in stably transfected SK-N-MC cells, PR-B, MMTV-LUC reporter; assay type: cell-based; conditions: read-out: IC50 PR-B
T1 construct: expressed in transfected cells; host or cells: SK-N-MC human neuroblastoma cells, stably transfected with pRChPR-B-neo and pMMTV-LUC
T1 sequence (P06401 1-933): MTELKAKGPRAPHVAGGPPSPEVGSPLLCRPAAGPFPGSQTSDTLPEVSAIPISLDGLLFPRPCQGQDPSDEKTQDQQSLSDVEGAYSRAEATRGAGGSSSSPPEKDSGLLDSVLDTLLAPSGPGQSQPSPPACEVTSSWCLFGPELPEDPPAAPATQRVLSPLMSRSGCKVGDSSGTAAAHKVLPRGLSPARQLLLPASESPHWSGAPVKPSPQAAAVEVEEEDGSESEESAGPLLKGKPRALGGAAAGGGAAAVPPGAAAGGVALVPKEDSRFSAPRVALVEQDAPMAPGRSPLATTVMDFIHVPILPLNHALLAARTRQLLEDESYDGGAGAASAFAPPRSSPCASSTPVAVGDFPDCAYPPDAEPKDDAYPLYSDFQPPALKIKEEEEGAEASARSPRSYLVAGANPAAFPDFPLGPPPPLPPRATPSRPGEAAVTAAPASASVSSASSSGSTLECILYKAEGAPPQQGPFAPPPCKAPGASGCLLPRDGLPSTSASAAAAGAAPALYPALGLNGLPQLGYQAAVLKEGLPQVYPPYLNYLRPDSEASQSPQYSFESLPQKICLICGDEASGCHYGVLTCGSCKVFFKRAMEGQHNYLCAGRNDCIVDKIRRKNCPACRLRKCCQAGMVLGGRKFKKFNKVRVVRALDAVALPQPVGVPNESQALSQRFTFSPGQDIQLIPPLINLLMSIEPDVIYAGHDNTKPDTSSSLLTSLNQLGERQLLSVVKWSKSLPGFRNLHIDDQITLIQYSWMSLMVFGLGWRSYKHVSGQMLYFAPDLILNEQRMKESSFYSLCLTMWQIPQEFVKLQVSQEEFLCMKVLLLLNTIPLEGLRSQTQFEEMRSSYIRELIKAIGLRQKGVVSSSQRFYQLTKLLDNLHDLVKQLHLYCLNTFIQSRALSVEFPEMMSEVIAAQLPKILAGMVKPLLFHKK
How it was run: (§1)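 SK-N-MC neuroblastoma cells stably expressing human PR-A or PR-B plus MMTV-LUC reporter, treated 24 h with compound (0.01 nmol/l upward). Antagonism measured against 0.1 nmol/l promegestone; luciferase in lysates as RLU, given as % efficacy and IC50 (agonism as EC50).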

[3] = Solubility in aqueous medium at pH 7.4; assay type: physicochemical; conditions: for solubility: aqueous medium, pH 7.4, aqueous buffer
[4] = molecular target: T2, human progesterone receptor A (Homo sapiens, UniProt P06401); assay: Progesterone receptor-antagonistic action in stably transfected SK-N-MC cells, PR-A, MMTV-LUC reporter; assay type: cell-based; conditions: read-out: IC50 PR-A
T2 construct: expressed in transfected cells; host or cells: SK-N-MC human neuroblastoma cells, stably transfected with pRChPR-A-neo and pMMTV-LUC
T2 sequence (P06401 1-769 isoform P06401-2): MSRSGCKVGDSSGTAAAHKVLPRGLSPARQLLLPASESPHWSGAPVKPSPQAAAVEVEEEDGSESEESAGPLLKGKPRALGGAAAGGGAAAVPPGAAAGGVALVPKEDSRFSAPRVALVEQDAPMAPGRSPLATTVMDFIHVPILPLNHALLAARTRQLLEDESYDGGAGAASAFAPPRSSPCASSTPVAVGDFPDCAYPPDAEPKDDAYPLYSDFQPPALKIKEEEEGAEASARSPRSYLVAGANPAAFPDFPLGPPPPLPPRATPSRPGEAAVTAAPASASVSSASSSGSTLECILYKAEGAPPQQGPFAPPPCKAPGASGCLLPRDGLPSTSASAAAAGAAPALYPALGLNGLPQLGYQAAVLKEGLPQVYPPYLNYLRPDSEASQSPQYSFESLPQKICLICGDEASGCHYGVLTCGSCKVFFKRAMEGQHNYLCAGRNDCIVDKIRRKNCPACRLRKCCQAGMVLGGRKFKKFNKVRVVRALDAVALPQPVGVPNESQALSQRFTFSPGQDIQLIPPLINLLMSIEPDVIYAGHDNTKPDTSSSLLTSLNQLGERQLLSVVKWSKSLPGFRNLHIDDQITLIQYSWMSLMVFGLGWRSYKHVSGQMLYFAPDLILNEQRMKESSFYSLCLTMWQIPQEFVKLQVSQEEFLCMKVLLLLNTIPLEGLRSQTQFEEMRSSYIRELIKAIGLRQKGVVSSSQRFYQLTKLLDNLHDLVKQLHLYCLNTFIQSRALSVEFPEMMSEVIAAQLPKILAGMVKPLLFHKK
How it was run: as §1

Compound | Predicted clearance Human [1] [mL/min/kg] | IC50 [2] [nM] | solubility (in words) ([3]; aqueous medium under physiological conditions) | solubility [3] [µg/mL] | IC50 [4] [nM] | IC50 ([4]; antagonistic potency vs 0.1 nmol/l promegestone, SK-N-MC cells, 24 hours) [nM]
C[C@]12C[C@H](c3ccc(C#CC(=O)O)cc3)C3=C4CCC(=O)C=C4CCC3C1CC[C@@]2(O)C(F)(F)C(F)(F)F (stereo partly drawn) [Example 2, [4-((8S,11R,13S,14S,17S)-17-hydroxy-13-methyl-3-oxo-17-pentafluoroethyl-2,3,6,7,8,11,12,13,14,15,16,17-dodecahydro-4H-cyclopenta[a]phenanthren-11-yl)phenyl]propynoic acid] | 0 | 16 | improved solubility | 178 (≈ 333 µM) | 32 | –
C[C@]12C[C@H](c3ccc(C#C/C=C\C#N)cc3)C3=C4CCC(=O)C=C4CCC3C1CC[C@@]2(O)C(F)(F)C(F)(F)F (stereo partly drawn) [Example 5, (Z)-5-[4-((8S,11R,13S,14S,17S)-17-hydroxy-13-methyl-3-oxo-17-pentafluoroethyl-2,3,6,7,8,11,12,13,14,15,16,17-dodecahydro-1H-cyclopenta[a]phenanthren-1′-yl)phenyl]pent-2-en-4-ynenitrile] | 2.83 | 0.76 | – | 8 (≈ 14.8 µM) | 0.72 | –
C[C@]12C[C@H](c3ccc(C#CCOC(=O)NCc4ccccc4)cc3)C3=C4CCC(=O)C=C4CCC3C1CC[C@@]2(O)C(F)(F)C(F)(F)F (stereo partly drawn) [Example 50, benzylcarbamic acid 3-[4-((8S,11R,13S,14S,17S)-17-hydroxy-13-methyl-3-oxo-17-pentafluoroethyl-2,3,6,7,8,11,12,13,14,15,16,17-dodecahydro-1H-cyclopenta[a]phenanthren-1′-yl)phenyl]prop-2-ynyl ester] | – | 0.03 | – | – | 0.01 | –
C[C@]12C[C@H](c3ccc(C#Cc4cccc(S(C)(=O)=O)c4)cc3)C3=C4CCC(=O)C=C4CC[C@H]3[C@@H]1CC[C@@]2(O)C(F)(F)C(F)(F)F [Example 51, (8S,11R,13S,14S,17S)-17-hydroxy-11-[4-(3-methanesulphonylphenylethynyl)phenyl]-13-methyl-17-pentafluoroethyl-1,2,6,7,8,11,12,13,14,15,16,17-dodecahydrocyclopenta[a]phenanthren-3-one] | – | 0.1 | – | – | 0.08 | –
COc1ccc(NC(=O)OCC#Cc2ccc([C@H]3C[C@@]4(C)C(CC[C@@]4(O)C(F)(F)C(F)(F)F)C4CCC5=CC(=O)CCC5=C43)cc2)cc1 (stereo partly drawn) [Example 52, 4-methoxyphenylcarbamic acid 3-[4-((8S,11R,13S,14S,17S)-17-hydroxy-13-methyl-3-oxo-17-pentafluoroethyl-2,3,6,7,8,11,12,13,14,15,16,17-dodecahydro-1H-cyclopenta[a]phenanthren-1′-yl)phenyl]prop-2-ynyl ester] | – | 0.07 | – | – | 0.01 | –
CCOC(=O)c1ccc(NC(=O)OCC#Cc2ccc([C@H]3C[C@@]4(C)[C@@H](CC[C@@]4(O)C(F)(F)C(F)(F)F)[C@@H]4CCC5=CC(=O)CCC5=C43)cc2)cc1 [Example 53, 4-{3-[4-((8S,11R,13S,14S,17S)-17-hydroxy-13-methyl-3-oxo-17-pentafluoroethyl-2,3,6,7,8,11,12,13,14,15,16,17-dodecahydro-1H-cyclopenta[a]phenanthren-11-yl)phenyl]prop-2-ynyloxycarbonylamino}benzoic acid ethyl ester] | – | 0.19 | – | – | 0.16 | –
C[C@]12C[C@H](c3ccc(C#CCOC(=O)Nc4ccc(N5CCCCC5)cc4)cc3)C3=C4CCC(=O)C=C4CCC3C1CC[C@@]2(O)C(F)(F)C(F)(F)F (stereo partly drawn) [Example 54, (4-piperidin-1-ylphenyl)carbamic acid 3-[4-((8S,11R,13S,14S,17S)-17-hydroxy-13-methyl-3-oxo-17-pentafluoroethyl-2,3,6,7,8,11,12,13,14,15,16,17-dodecahydro-1H-cyclopenta[a]phenanthren-1′-yl)phenyl]prop-2-ynyl ester] | – | 0.09 | – | – | 0.1 | –
C[C@]12C[C@H](c3ccc(C#CCOC(=O)Nc4ccc(Cl)cc4)cc3)C3=C4CCC(=O)C=C4CCC3C1CC[C@@]2(O)C(F)(F)C(F)(F)F (stereo partly drawn) [Example 55, 4-chlorophenylcarbamic acid 3-[4-((8S,11R,13S,14S,17S)-17-hydroxy-13-methyl-3-oxo-17-pentafluoroethyl-2,3,6,7,8,11,12,13,14,15,16,17-dodecahydro-1H-cyclopenta[a]phenanthren-1′-yl)phenyl]prop-2-ynyl ester] | – | 0.2 | – | – | 0.26 | –
C[C@]12C[C@H](c3ccc(C#Cc4ccc(S(C)(=O)=O)cc4)cc3)C3=C4CCC(=O)C=C4CC[C@H]3[C@@H]1CC[C@@]2(O)C(F)(F)C(F)(F)F [Example 56, (8S,11R,13S,14S,17S)-17-hydroxy-11-[4-(4-methanesulphonylphenylethynyl)phenyl]-13-methyl-17-pentafluoroethyl-1,2,6,7,8,11,12,13,14,15,16,17-dodecahydrocyclopenta[a]phenanthren-3-one] | – | 0.08 | – | – | – | 0.01
C[C@]12C[C@H](c3ccc(C#CCOC(=O)Nc4cccnc4)cc3)C3=C4CCC(=O)C=C4CC[C@H]3[C@@H]1CC[C@@]2(O)C(F)(F)C(F)(F)F [Example 57, 3-pyridylcarbamic acid 3-[4-((8S,11R,13S,14S,17S)-17-hydroxy-13-methyl-3-oxo-17-pentafluoroethyl-2,3,6,7,8,11,12,13,14,15,16,17-dodecahydro-1H-cyclopenta[a]phenanthren-1′-yl)phenyl]prop-2-ynyl ester] | – | 0.08 | – | – | 0.01 | –
CC(C)(C)NC(=O)OCC#Cc1ccc([C@H]2C[C@@]3(C)C(CC[C@@]3(O)C(F)(F)C(F)(F)F)C3CCC4=CC(=O)CCC4=C32)cc1 (stereo partly drawn) [Example 58, tert-butylcarbamic acid 3-[4-((8S,11R,13S,14S,17S)-17-hydroxy-13-methyl-3-oxo-17-pentafluoroethyl-2,3,6,7,8,11,12,13,14,15,16,17-dodecahydro-1H-cyclopenta[a]phenanthren-1′-yl)phenyl]prop-2-ynyl ester] | – | 0.01 | – | – | 0.09 | –
CC(C)(C)c1ccc(NC(=O)OCC#Cc2ccc([C@H]3C[C@@]4(C)C(CC[C@@]4(O)C(F)(F)C(F)(F)F)C4CCC5=CC(=O)CCC5=C43)cc2)cc1 (stereo partly drawn) [Example 59, 4-tert-butylphenylcarbamic acid 3-[4-((8S,11R,13S,14S,17S)-17-hydroxy-13-methyl-3-oxo-17-pentafluoroethyl-2,3,6,7,8,11,12,13,14,15,16,17-dodecahydro-1H-cyclopenta[a]phenanthren-1′-yl)phenyl]prop-2-ynyl ester] | – | 1.2 | – | – | 0.7 | –

— patent US9102701B2, “17-hydroxy-17-pentafluoroethyl-estra-4,9(10)-diene-11-ethynylphenyl derivatives, methods for the production thereof and use thereof for treating diseases” (Bayer Intellectual Property GmbH, priority 2009, dated 2015)
